The values below come from patent US11202779B2, “Combinations for the treatment of neoplasms using quiescent cell targeting with EGFR inhibitors” (Felicitex Therapeutics, Inc., priority 2016, dated 2021).

Each structure is given as a SMILES string. Like-named read-outs stand apart in the source and are kept apart here.

One experiment concerns PANC1 cells. As to the kind of experiment: Cell viability assay in 2D cell culture (CellTiter-Glo), PANC1. The class given is cell-based. Conditions: Homo sapiens, PANC-1, 96 h.
Experiment [1] deals with H1975 cells. As to the kind of experiment: Cell viability assay in 2D cell culture (CellTiter-Glo), H1975. It counts as cell-based. Conditions: Homo sapiens, NCI-H1975, 96 h. On the technique in general: ATP-based viability assays read luminescence as a measure of living cells.
Experiment [2] relates to phosphorylated Y1068-EGFR. As to the kind of experiment: Western blot, EGFR phosphorylation in H1975 cells. Conditions: 24 hours treatment. It counts as cell-based. The procedure:
(§1) For Western Blot analysis cells were seeded into 6-well plates at 5×10^5-9×10^5 cells/well (depending on the cell size and rate of proliferation), allowed to attach for 24 hours, then treated with compounds for 24 hours, and harvested. Immunoblotting was performed using conventional techniques, as described in Cell Signaling Technologies Western Blotting protocol (www.cellsignal.com).
Background: Immunoblotting shows a protein as a band on a membrane.

Experiment [3] relates to DYRK1B. As to the kind of experiment: Western blot, DYRK1B expression in H1975 cells. Conditions: 24 hours treatment, compared to untreated cells in FBS+ or FBS− medium. It counts as cell-based. Here is the method:
as §1

In the next experiment the test system is SW620 cells. As to the kind of experiment: FACS analysis of cell cycle distribution by DNA content (propidium iodide), SW620. It counts as cell-based. Conditions: 24 hours in FBS− media, AZ191 2.5, 5, 10 μM, Compound I-7 1.25, 2.5, 5 μM. The procedure:
The SW620 cells were cultured and treated as described in Example 1. For propidium iodide (PI) staining, manufacturer's protocol supplied with the Guava Cell Cycle Reagent for Flow Cytometry (EMD Millipore) was followed. The measurements were performed with Guava PCA-96 flow cytometer (EMD Millipore) using the green laser for excitation at 535 nm and monitoring emission at 617 nm.
The SW620 cells were cultured, treated, and analyzed as described in Examples 1. For propidium iodide (PI) staining, manufacturer's protocol supplied with the Guava Cell Cycle Reagent for Flow Cytometry (EMD Millipore) was followed. The measurements were performed with Guava PCA-96 flow cytometer (EMD Millipore) using the green laser for excitation at 535 nm and monitoring emission at 617 nm.

Experiment [4] concerns DYRK1B. The note with it: literature value; read-out: inhibits DYRK1B at; cited from earlier work.
For a further experiment, the system named is H1975 spheroids. As to the kind of experiment: Cell viability assay in 3D cell culture (spheroids), H1975. It counts as cell-based. Conditions: Homo sapiens, NCI-H1975, 168 h, seven days. Here is the method:
Each treatment was performed in triplicate.
Cells were incubated for 2-3 days (depending on the cell line) at 37° C. in a humidified 5% CO2 atmosphere allowing for tight spheroid formation. For the treatment, 50 μL of media was removed from each well and replaced with fresh media with compounds. […] Before reading the results, cells were incubated for the period of 4-10 days in 5% CO2 incubator at 37° C. If the treatment time exceeded 4 days, […] in each well was replaced with fresh media containing the test compound every fourth day. Each treatment was performed in duplicate. […] Prior to analysis, the spheroids were photographed at 50× magnification.

The subject of experiment [5] is H1975 cells. Briefly: FACS analysis of cell cycle distribution (Acridine Orange), H1975. It counts as cell-based. The note with it: 24 hours. Background: In flow cytometry, cells or beads pass a laser one at a time.
Experiment [6] relates to PC9 human non-small cell lung cancer cells. Conditions: exposure of PC9 cells, literature; cited from earlier work.
A further experiment relates to PC9 cells. As to the kind of experiment: Cell viability assay in 2D cell culture (CellTiter-Glo), PC9. It counts as cell-based. Conditions: Homo sapiens, PC-9, 96 h. From the text: (§2) The following cell lines were obtained from ATCC and cultured according to the ATCC recommendations: H1975—non-small cell lung cancer cell line harboring L858R and T790M mutations; HCC827—non-small cell lung cancer cell line with E746-A750 deletion in EGFR TK; PC9—non-small cell lung cancer cell line with E746-A750 deletion in EGFR TK; A549—non-small cell lung cancer cell line with wild type EGFR; PANC1—pancreatic cancer cell line; MiaPaCa-2—pancreatic cancer cell line, and SW620—colon cancer cell line. Cell cultures of these lines were seeded into 6-well plates at 3×10^5−6×10^5 cells/well; the plated number of cells depended on cell size and rate of proliferation, aiming for approximately 50% confluency. After seeding, the cells were allowed to attach for 24 hours while incubated at 37° C. in a humidified 5% CO2 atmosphere, and then treated with compounds for desired amount of time (usually 24 hours) incubating under same conditions. Then the cells were harvested by trypsinization, pooled with the floating cells, washed in PBS, and fixed in 70% ice-cold ethanol overnight. For Acridine Orange (AO) staining, fixed cells were washed once with ice-cold PBS, re-suspended in 100 μL PBS, followed by addition of 200 μL of permeabilizing solution and 600 μL AO staining solution.
(§3) For viability analysis, cells were seeded into 96-well plates at 2×10^3-6×10^3 cells/well; depending on cell size and rate of proliferation aiming for approximately 50% confluency. Cells were allowed to attach for 24 hours incubated at 37° C. in a humidified 5% CO2 atmosphere. The treatments were performed using at least 6 different concentrations of a compound in 1:3 serial dilutions. Before reading the results cells were incubated for 96 hours in 5% CO2 incubator at 37° C. Each treatment was performed in triplicate. Results were analyzed by CellTiter-Glo™ Luminescent Cell Viability Assay (Promega, cat. # G7571) according to the manufacturer's instructions using SpectraMAX Gemini Spectrophotometer (Molecular Devices).

Another experiment has as its system A549 cells. As to the kind of experiment: Cell viability assay in 2D cell culture (CellTiter-Glo), A549. The class given is cell-based. The note with it: Homo sapiens, A549, 96 h.
Text: as §2, §3

Another experiment deals with quiescent cancer cells. The note with it: in vitro, literature; cited from earlier work.
The test system of another experiment is MiaPaCa-2 cells. As to the kind of experiment: Cell viability assay in 2D cell culture (CellTiter-Glo), MiaPaCa-2. It counts as cell-based. Conditions: Homo sapiens, MIA PaCa-2, 96 h.
Text: as §2, §3

[7] abbreviates: Compound I-7 present at 2 μM, read-out: EC50.
Setting [8] is: Compound I-7 present at 4 μM, read-out: EC50.
Setting [9] is: EGFR inhibitor alone (Compound I-5 / I-7 not present), read-out: EC50.
[10] abbreviates: EGFR inhibitor alone (Compound I-7 not present).
Where [11] appears, read: 18 nM osimertinib with 5 μM Compound I-7, FBS+ or pre-starved.
Where [12] appears, read: EGFR inhibitor alone (Compound I-5 / I-7 not present).

As a reminder, the EC50 is the concentration that produces a half-maximal response. As to `COc1cc2ncnc(Nc3ccc(F)c(Cl)c3)c2cc1NC(=O)/C=C/CN1CCCCC1` [dacomitinib], the EC50 with PANC1 cells (setting [7]) worked out at 9900 nM; in the experiment with PANC1 cells (setting [8]), 7100 nM; with PANC1 cells (setting [9]), 11400 nM; in the experiment with H1975 cells [1] (Compound I-7 present at 2 μM), 88.6 nM; in the experiment on H1975 cells [1] (Compound I-7 present at 4 μM), 34.8 nM; in the experiment with H1975 cells [1] (setting [10]), 110 nM. Besides, the “EGFR phosphorylation (ph-Y1068 EGFR)” value in experiment [2] is listed as “suppressed the EGFR phosphorylation”. In the experiment on DYRK1B [3], the “expression of DYRK1B protein” value is listed as “induced expression of DYRK1B protein similar to or higher than that produced by serum starvation”.

Consider `CCOC(=N)c1nc2ccc3ncnc(Nc4cc(F)c(F)cc4Cl)c3c2s1` [Compound I-7], for which the “fraction of cells in quiescent state (G0), based on fraction of cells G0+G1 phase” value with SW620 cells is listed as “significant decrease in fraction of cells in quiescent state (G0)”.

Regarding `COc1cc(N2CCN(C)CC2)ccc1Nc1nccc(-c2cn(C)c3cnccc23)n1` [AZ191], the “fraction of cells in quiescent state (G0), based on fraction of cells G0+G1 phase” value in the experiment with SW620 cells is “no decrease in fraction of cells in quiescent state (G0)”. In the experiment with DYRK1B [4], the IC50 is 17 nM.

As to `C=CC(=O)Nc1cc(Nc2nccc(-c3cn(C)c4ccccc34)n2)c(OC)cc1N(C)CCN(C)C` [osimertinib], the EC50 was found to be 4600 nM in the experiment on PANC1 cells (setting [7]); 4500 nM with PANC1 cells (setting [8]); 5300 nM with PANC1 cells (setting [9]); 7.9 nM with H1975 cells [1] (Compound I-7 present at 2 μM); 4.2 nM with H1975 cells [1] (Compound I-7 present at 4 μM); 8.7 nM in the experiment on H1975 cells [1] (setting [10]). The EC50 worked out at 0.68 nM in the experiment on H1975 spheroids (regular growth media (FBS+), Compound I-7 not present); 0.28 nM in the experiment on H1975 spheroids (regular growth media (FBS+), Compound I-7 present at 2.5 μM); 3.3 nM in the experiment with H1975 spheroids (serum starvation (FBS−), Compound I-7 not present); 1 nM in the experiment with H1975 spheroids (serum starvation (FBS−), Compound I-7 present at 2.5 μM). For the same compound, in the experiment on H1975 cells [5] (18 nM osimertinib alone, pre-incubated in FBS+ or pre-starved in FBS− medium), the “fraction of cells in quiescent (G0) state” value was “even more effective than serum starvation (FBS−) at inducing a large fraction of the cells into the quiescent (G0) state”. The “apoptotic cells (sub-G0 population)” value in the experiment on H1975 cells [5] (setting [11]) is given as “significant increases in apoptotic cells”. Besides, in the experiment with H1975 cells [5] (setting [11]), the “fraction of cells in G0” value is given as “reduced the fraction of cells in G0”. Further, the “EGFR phosphorylation (ph-Y1068 EGFR)” value in experiment [2] is listed as “suppressed the EGFR phosphorylation”. Besides, the “expression of DYRK1B protein” value in the experiment on DYRK1B [3] is “induced expression of DYRK1B protein similar to or higher than that produced by serum starvation”.

Turning to `CS(=O)(=O)CCNCc1ccc(-c2ccc3ncnc(Nc4ccc(OCc5cccc(F)c5)c(Cl)c4)c3c2)o1` [lapatinib], the “fraction of cells in G0 (pharmacological quiescence)” value in [6] is on record as “significant increase of fraction of cells in G0”.

`CN(C)C/C=C/C(=O)Nc1cc2c(Nc3ccc(F)c(Cl)c3)ncnc2cc1O[C@H]1CCOC1` [afatinib]: the EC50 in the experiment on PC9 cells (Compound I-7 present at 3 μM) came out at 1.3 nM; in the experiment with PC9 cells (Compound I-7 present at 6 μM) it was 0.4 nM; with PC9 cells (setting [12]), 2.1 nM; in the experiment with A549 cells (Compound I-7 present at 3 μM), 2600 nM; with A549 cells (Compound I-7 present at 6 μM), 1000 nM; in the experiment on A549 cells (setting [10]) it was 4700 nM. Besides, the EC50 was 1800 nM in the experiment with PANC1 cells (Compound I-7 present at 2 μM); 1500 nM in the experiment with PANC1 cells (Compound I-7 present at 4 μM); 1900 nM in the experiment with PANC1 cells (setting [12]); 25.2 nM with H1975 cells [1] (Compound I-7 present at 2 μM); 8.2 nM with H1975 cells [1] (Compound I-7 present at 4 μM); 89.4 nM with H1975 cells [1] (setting [10]).

In the case of `C=CC(=O)Nc1cccc(Nc2nc(Nc3ccc(N4CCN(C(C)=O)CC4)cc3OC)ncc2C(F)(F)F)c1` [rociletinib], the EC50 in the experiment with PANC1 cells (setting [7]) was 9900 nM; in the experiment on PANC1 cells (setting [8]) it was 7100 nM; in the experiment with PANC1 cells (setting [9]), 11400 nM; in the experiment on H1975 cells [1] (Compound I-7 present at 2 μM), 22.5 nM; in the experiment on H1975 cells [1] (Compound I-7 present at 4 μM), 14.9 nM; in the experiment with H1975 cells [1] (setting [10]), 351 nM.

On to `COc1ncc2cc(C(=O)Nc3cc(C(=O)NCc4cccc(Cl)c4)ccc3Cl)c(=O)[nH]c2n1` [TC-S 7004], for which the “effectiveness against quiescent cancer cells” value in the experiment with quiescent cancer cells is given as “effective against quiescent cancer cells in vitro”.

As for `C#Cc1cccc(Nc2ncnc3cc(OCCOC)c(OCCOC)cc23)c1` [erlotinib], the concentration giving a half-maximal response (EC50) was found to be 9.3 nM in the experiment with PC9 cells (Compound I-5 present at 2 μM); 3.7 nM with PC9 cells (Compound I-5 present at 4 μM); 17.3 nM in the experiment with PC9 cells (setting [12]); 5900 nM in the experiment on A549 cells (Compound I-7 present at 3 μM, read-out: EC50); 400 nM in the experiment with A549 cells (Compound I-7 present at 6 μM, read-out: EC50); 10400 nM with A549 cells (EGFR inhibitor alone (Compound I-7 not present), read-out: EC50). In addition, the EC50 is over 30000 nM with PANC1 cells (Compound I-5 present at 2.5 μM, read-out: EC50); 14000 nM with PANC1 cells (Compound I-5 present at 5 μM, read-out: EC50); over 30000 nM in the experiment on PANC1 cells (setting [9]); 6400 nM in the experiment with MiaPaCa-2 cells (Compound I-5 present at 2.5 μM); 3500 nM in the experiment with MiaPaCa-2 cells (Compound I-5 present at 5 μM); over 30000 nM with MiaPaCa-2 cells (erlotinib alone (Compound I-5 not present)). Also, the “fraction of cells in G0 (pharmacological quiescence)” value in experiment [6] is reported as “significant increase of fraction of cells in G0”.
